Test results from paper PMC11352945, “Anticancer Activity of Benzo[a]phenoxazine Compounds Promoting Lysosomal Dysfunction” (Cells, 2024).
Converted amounts (≈) assume the structure as drawn.

Legend:
MDA-MB-231 cells = test: Sulforhodamine B (SRB) cell viability assay, MDA-MB-231; format: cell-based, human
Protocol: (§1) The cells were allowed to adhere overnight, from 12 h to 18 h, and then treated with increasing concentrations of each compound, C9, A36, and A42 (0.125 μM, 0.25 μM, 0.5 μM, 1 μM, 2.5 μM, and 5 μM), in their respective culture mediums for 48 h. In addition to a negative control that consisted only of cells and growth medium, a negative control containing the highest concentration of the solvent in which the compound was dissolved (DMSO 0.1%) was also used. The SRB assay was performed according to Marques et al.. The IC50 values were obtained using GraphPad Prism version 8.2.1 through the application of a sigmoidal dose–response nonlinear regression, after logarithmic transformation. The selectivity index was determined by dividing the IC50 value of the non-neoplastic BJ-5ta cell line by the IC50 value of the cancer cell lines (IC50 BJ-5ta/IC50 cancer cell line); furthermore, for the CRC model, a second selectivity index was also determined using the non-neoplastic NCM460 cell line (IC50 NCM460/IC50 CRC cell line). According to the results of the selectivity index, the cell line with the highest selectivity value for each of the models, CRC and breast, was selected for subsequent characterization.
(§2) Three CRC-derived cell lines, SW480 (KRAS^G12V), HCT116 (KRAS^G13D), and RKO (BRAF^V600E), harboring somatic mutations on KRAS or BRAF, and two breast-cancer-derived cell lines, MDA-MB-231 (basal like) and MCF7 (luminal A subtype), together with two non-neoplastic cell lines, NCM460 (normal colon mucosal epithelial cell line) and BJ-5ta (normal foreskin fibroblast cell line), were used to study the activity and selectivity of the three new benzo[a]phenoxazine compounds, C9, A36, and A42. All cell lines were treated with a range of drug concentrations (0.125 μM, 0.25 μM, 0.5 μM, 1 μM, 2.5 μM, and 5 μM) for 48 h, and the effect on cell viability was assessed using a sulforhodamine B assay (SRB) (Figure 2). The results were used to determine the IC50 value of each compound for all the cell lines (Table 1). In addition, the selectivity index was determined using the BJ-5ta cell line as a reference, as well as the NCM460 cell line for the CRC model (Table 1).

SW480 cells = test: Sulforhodamine B (SRB) cell viability assay, SW480; format: cell-based; settings: Homo sapiens, CRC cell line, 48 h, read-out: IC50 (μM) ± SD, SW480
Protocol: as §1
as §2, with “The results were used to determine the IC50 value of each compound for all the cell lines (Table 1).” left out

HCT116 cells = test: Sulforhodamine B (SRB) cell viability assay, HCT116; format: cell-based; settings: Homo sapiens, HCT-116, CRC cell line, 48 h, read-out: IC50 (μM) ± SD, HCT116
Protocol: as §1
as §2, with “The results were used to determine the IC50 value of each compound for all the cell lines (Table 1).” left out

NCM460 cells = test: Sulforhodamine B (SRB) cell viability assay, NCM460; format: cell-based; settings: Homo sapiens, non-neoplastic cell line, 48 h, read-out: IC50 (μM) ± SD, NCM460
Protocol: as §1
as §2, with “The results were used to determine the IC50 value of each compound for all the cell lines (Table 1).” left out

RKO cells [1] = test: ROS levels (DHE, flow cytometry), RKO; format: cell-based, human; settings: 2 × IC50 and 4 × IC50, 48 h
Protocol: The RKO and MCF7 ROS levels were evaluated through flow cytometry using the dihydroethidium (DHE) probe. RKO and MCF7 cells were seeded in 12-well plates at a density of 1 × 10^5 cells/mL. After 24 h, the cells were treated with the compounds C9, A36, and A42 at 2 × IC50 and 4 × IC50 concentrations or 0.1% DMSO (vehicle). As a control, untreated cells were used. The cells were collected after 48 h of treatment, washed with PBS 1×, and stained for 30 min at 37 °C in the dark using 0.5 μM DHE. The DHE mean fluorescence intensity was analyzed by flow cytometry using the PE-A channel.
Since ROS generation is reported to precede LMP and cell death, and in view of reports showing that some compounds of this family increase intracellular ROS levels under certain circumstances, we also investigated whether C9, A36, and A42 had any effects in this regard.

RKO cells [2] = test: Sulforhodamine B (SRB) cell viability assay, RKO; format: cell-based; settings: Homo sapiens, CRC cell line, 48 h, read-out: IC50 (μM) ± SD, RKO
Protocol: as §1
as §2, with “The results were used to determine the IC50 value of each compound for all the cell lines (Table 1).” left out

S. cerevisiae = settings: yeast S. cerevisiae, microdilution; cited from earlier work
BJ-5ta cells = test: Sulforhodamine B (SRB) cell viability assay, BJ-5ta; format: cell-based; settings: Homo sapiens, non-neoplastic cell line, 48 h, read-out: IC50 (μM) ± SD, BJ-5ta
Protocol: as §1
as §2, with “The results were used to determine the IC50 value of each compound for all the cell lines (Table 1).” left out

MCF7 cells [3] = test: Lysosomal membrane permeabilization (acridine orange, flow cytometry), MCF7; format: cell-based, human; settings: MCF7, 4 × IC50, 48 h
Protocol: RKO and MCF7 lysosomal membrane permeabilization (LMP) was evaluated through flow cytometry using the Acridine Orange (A.O) probe. RKO and MCF7 cells were seeded in 12-well plates at a density of 1 × 10^5 cells/mL. After 24 h, the cells were treated with the compounds C9, A36, and A42 at 2 × IC50 and 4 × IC50 concentrations or 0.1% DMSO (vehicle). As a control, untreated cells were employed. Following a 48 h period, the adherent and floating cells were collected and subjected to a 15-min dark incubation period at 37 °C with 1 μM A.O. After that, the samples were examined by flow cytometry using the PC5.5 channel.
Following the information obtained with the lead compound and considering the microscopic observations made with these new compounds, we next investigated whether their toxicity was also associated with lysosome targeting. To this end, we evaluated the induction of lysosomal membrane permeabilization (LMP) by flow cytometry, using acridine orange (AO) as probe. This probe allows for an assessment of permeabilization, as its fluorescence decreases upon the release of lysosomal protons. […] The cells that presented decreased AO fluorescence were considered to have permeabilized lysosomes.

MCF7 cells [4] = test: Sulforhodamine B (SRB) cell viability assay, MCF7; format: cell-based; settings: Homo sapiens, breast cancer cell line, 48 h, read-out: IC50 (μM) ± SD, MCF7
Protocol: as §1
as §2, with “The results were used to determine the IC50 value of each compound for all the cell lines (Table 1).” left out

IC50 (MDA-MB-231 cells; Homo sapiens, MDA-MB-231, breast cancer cell line, 48 h, SRB, read-out: IC50 (μM) ± SD, MDA-MB-231): 1.19 ± 0.05 µM
IC50 (SW480 cells): 0.78 ± 0.09 µM
IC50 (HCT116 cells): 1.64 ± 0.09 µM
IC50 (MCF7 cells [4]): 0.84 ± 0.06 µM
Structure (SMILES): CCCNc1cc2oc3cc(=NCC)c(C)cc-3nc2c2ccccc12 [C9]
Selectivity Index Cell Line IC50/BJ-5ta IC50 (MDA-MB-231 cells; MDA-MB-231 versus BJ-5ta): 2.14
IC50 (NCM460 cells): 1.12 ± 0.13 µM
ROS levels (fluorescence mean of DHE) (RKO cells [1]): higher intensity
IC50 (RKO cells [2]): 0.17 ± 0.01 µM
MIC (minimum inhibitory concentration) (S. cerevisiae): 6.25 µM (≈ 2.16 µg/mL)
IC50 (BJ-5ta cells): 2.55 ± 0.15 µM
Percentage of cells with LMP (permeabilized lysosomes) (MCF7 cells [3]): more than 80%
